Measured values: patent publication US9434724B2, “Quinuclidines for modulating alpha 7 activity” (priority 2014, dated 2016)
pIC50, pKi: −log10 of the molar value. Like-named read-outs stand apart in the source and are kept apart here.

Legend:
[1] = target: rat brain nicotinic receptor (α7 NAChR) (Rattus norvegicus (Rat), UniProt Q05941); type: binding
[2] = Metabolic stability assay in human liver microsomes (HLM); type: in vitro ADME; settings: 1 μM
Procedure, shortened: (§1)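 In Protocol 1, compound was 1 μM final with NADPH at 37 °C, sampled at 0–45 min. In Protocol 2, 1.5 μM compound with 0.75 mg/mL microsomes (pre-NADPH mix) in 0.1 M potassium phosphate, 1 mM EDTA, pH 7.4 was pre-incubated 10 min, then NADPH started the reaction. Both: LC-MS/MS % remaining versus time 0, half-life from single-phase exponential fit.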

[3] = Metabolic stability assay in rat liver microsomes (RLM); type: in vitro ADME; settings: 1 μM
Procedure, shortened: as §1

Human plasma stability = type: in vitro ADME
Procedure, shortened: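 Protocol 1: 1 μM compound in pH 7.4 sodium-heparin human plasma at 37° C, sampled 0–120 min. Protocol 2: 5 μM in plasma at pH 7.4–8.0, 37° C, duplicates, sampled 0–120 min. Both: LC-MS/MS percent remaining versus t0; half-life from single-phase exponential decay.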

CYP1A2 = CYP1A2 (Homo sapiens (Human), UniProt P05177); test: Cytochrome P450 inhibition in human liver microsomes, CYP1A2
CYP2C9 = CYP2C9 (Homo sapiens (Human), UniProt P11712); test: Cytochrome P450 inhibition in human liver microsomes, CYP2C9
CYP2D6 = CYP2D6 (Homo sapiens (Human), UniProt P10635); test: Cytochrome P450 inhibition in human liver microsomes, CYP2D6
CYP2C19 [4] = target: T1, CYP2C19 (Homo sapiens (Human), UniProt P33261); test: Cytochrome P450 inhibition in human liver microsomes, CYP2C19
CYP3A4 = CYP3A4 (Homo sapiens (Human), UniProt P08684); test: Cytochrome P450 inhibition in human liver microsomes, CYP3A4
CYP2C19 [5] = target: T1, CYP2C19; settings: microsomes, 45 min
[6] = read-out: 2C19 IC50, Protocol 2
[7] = Protocol No. 2, human liver microsomes
[8] = Protocol No. 2, rat liver microsomes
[9] = read-out: 3A4 IC50 (Midazolam), substrate midazolam, Protocol 2
[10] = pH 7.4, Protocol No. 1, human plasma, 1 μM, 37° C., read-out: T1/2
[11] = read-out: 3A4 IC50 (Midazolam), substrate midazolam, Protocol 1
[12] = read-out: 3A4 IC50 (Testosterone), substrate testosterone, Protocol 1
[13] = Protocol No. 1, human liver microsomes
[14] = Protocol No. 1, rat liver microsomes
[15] = Protocol No. 2, plasma, 5 μM, 37° C.
[16] = read-out: 2C19 IC50, Protocol 1

Chain of rat brain nicotinic receptor (α7 NAChR) (Q05941 23-502 limits assumed): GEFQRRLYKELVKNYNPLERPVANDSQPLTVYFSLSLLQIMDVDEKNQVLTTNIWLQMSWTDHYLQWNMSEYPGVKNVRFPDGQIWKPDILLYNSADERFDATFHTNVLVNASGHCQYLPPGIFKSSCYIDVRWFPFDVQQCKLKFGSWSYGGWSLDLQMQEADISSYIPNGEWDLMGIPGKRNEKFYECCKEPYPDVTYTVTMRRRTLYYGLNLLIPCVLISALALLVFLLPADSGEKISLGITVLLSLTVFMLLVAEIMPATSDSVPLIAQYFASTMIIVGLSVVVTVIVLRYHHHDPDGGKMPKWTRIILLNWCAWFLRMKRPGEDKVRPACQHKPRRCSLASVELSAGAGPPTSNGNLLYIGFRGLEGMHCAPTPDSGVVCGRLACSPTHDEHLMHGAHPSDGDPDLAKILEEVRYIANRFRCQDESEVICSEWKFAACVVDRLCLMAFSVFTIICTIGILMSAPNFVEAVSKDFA
Chain of CYP1A2 (P05177 whole entry): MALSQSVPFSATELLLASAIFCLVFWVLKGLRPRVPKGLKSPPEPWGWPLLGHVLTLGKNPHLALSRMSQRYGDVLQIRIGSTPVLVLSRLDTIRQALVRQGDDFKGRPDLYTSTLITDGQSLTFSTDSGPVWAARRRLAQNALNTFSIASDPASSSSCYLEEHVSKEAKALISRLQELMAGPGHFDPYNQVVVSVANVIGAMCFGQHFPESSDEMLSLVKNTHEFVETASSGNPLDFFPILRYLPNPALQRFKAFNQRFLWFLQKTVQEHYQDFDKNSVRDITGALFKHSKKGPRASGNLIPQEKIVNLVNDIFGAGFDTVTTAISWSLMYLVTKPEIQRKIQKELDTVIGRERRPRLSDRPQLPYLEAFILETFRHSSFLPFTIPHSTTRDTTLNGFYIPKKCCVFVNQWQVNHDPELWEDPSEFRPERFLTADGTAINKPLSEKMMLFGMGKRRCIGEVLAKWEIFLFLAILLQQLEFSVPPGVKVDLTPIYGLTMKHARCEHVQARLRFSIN
Chain of CYP2C9 (P11712 whole entry): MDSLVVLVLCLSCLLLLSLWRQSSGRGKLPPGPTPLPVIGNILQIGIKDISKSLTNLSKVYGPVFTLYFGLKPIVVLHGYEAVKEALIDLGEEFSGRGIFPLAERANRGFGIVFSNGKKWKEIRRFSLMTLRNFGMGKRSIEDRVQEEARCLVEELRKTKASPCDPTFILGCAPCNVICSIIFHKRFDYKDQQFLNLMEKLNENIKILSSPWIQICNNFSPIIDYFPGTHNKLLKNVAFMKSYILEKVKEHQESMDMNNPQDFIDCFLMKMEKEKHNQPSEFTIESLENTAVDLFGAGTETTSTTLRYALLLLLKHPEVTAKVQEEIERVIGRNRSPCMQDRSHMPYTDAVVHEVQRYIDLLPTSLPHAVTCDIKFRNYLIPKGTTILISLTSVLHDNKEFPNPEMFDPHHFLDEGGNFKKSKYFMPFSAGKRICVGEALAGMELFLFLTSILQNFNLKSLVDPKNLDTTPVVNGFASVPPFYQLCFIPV
T1 sequence (P33261 whole entry): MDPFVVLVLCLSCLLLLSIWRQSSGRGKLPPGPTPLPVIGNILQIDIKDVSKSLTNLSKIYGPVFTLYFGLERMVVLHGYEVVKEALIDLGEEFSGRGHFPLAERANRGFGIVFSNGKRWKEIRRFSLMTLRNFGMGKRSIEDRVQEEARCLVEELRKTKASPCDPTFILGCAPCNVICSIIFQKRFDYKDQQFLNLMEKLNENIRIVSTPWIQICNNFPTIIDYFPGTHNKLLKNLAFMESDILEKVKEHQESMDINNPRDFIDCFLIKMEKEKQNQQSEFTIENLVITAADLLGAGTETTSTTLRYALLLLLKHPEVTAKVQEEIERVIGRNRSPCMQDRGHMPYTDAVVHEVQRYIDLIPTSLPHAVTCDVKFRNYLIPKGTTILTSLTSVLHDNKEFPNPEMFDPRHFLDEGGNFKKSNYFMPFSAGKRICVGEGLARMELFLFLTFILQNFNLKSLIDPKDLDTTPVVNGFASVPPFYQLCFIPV
Chain of CYP2D6 (P10635 whole entry): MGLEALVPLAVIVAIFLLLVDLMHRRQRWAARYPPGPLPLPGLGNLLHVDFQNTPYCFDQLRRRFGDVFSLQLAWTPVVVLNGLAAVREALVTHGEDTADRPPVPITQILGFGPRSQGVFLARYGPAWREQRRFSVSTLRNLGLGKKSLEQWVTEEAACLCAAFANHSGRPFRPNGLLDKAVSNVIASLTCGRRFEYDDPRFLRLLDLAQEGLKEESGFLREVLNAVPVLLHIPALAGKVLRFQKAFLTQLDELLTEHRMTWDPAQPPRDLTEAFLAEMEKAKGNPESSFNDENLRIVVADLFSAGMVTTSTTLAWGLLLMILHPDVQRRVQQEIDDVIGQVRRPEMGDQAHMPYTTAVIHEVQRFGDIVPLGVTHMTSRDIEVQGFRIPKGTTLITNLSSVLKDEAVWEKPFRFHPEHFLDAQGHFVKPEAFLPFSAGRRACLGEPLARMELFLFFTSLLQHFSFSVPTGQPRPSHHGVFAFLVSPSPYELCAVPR
Chain of CYP3A4 (P08684 whole entry): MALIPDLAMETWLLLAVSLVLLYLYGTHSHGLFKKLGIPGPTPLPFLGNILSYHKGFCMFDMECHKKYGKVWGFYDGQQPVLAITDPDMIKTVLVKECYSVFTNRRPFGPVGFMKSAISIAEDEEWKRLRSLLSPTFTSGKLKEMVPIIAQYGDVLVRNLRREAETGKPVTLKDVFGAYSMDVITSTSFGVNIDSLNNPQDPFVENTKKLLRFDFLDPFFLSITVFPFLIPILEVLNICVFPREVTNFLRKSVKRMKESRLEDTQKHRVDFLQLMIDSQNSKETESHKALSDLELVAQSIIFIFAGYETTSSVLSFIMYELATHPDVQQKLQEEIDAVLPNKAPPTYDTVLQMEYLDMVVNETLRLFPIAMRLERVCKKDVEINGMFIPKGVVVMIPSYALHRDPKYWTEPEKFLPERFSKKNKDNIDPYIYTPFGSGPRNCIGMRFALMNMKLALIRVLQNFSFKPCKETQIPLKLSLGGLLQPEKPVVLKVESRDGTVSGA

Compound	pIC50 [1]	pKi [1]	pIC50 (CYP1A2; read-out: 1A2 IC50, Protocol 2)	pIC50 (CYP2C9; read-out: 2C9 IC50, Protocol 2)	pIC50 (CYP2D6; read-out: 2D6 IC50, Protocol 2)	pIC50 (CYP2C19 [4]; [6])	HLM [2, 7] [mL/min/kg]	RLM [3, 8] [mL/min/kg]	pIC50 (CYP3A4; [9])	pIC50 (CYP3A4; [11])	pIC50 (CYP3A4; [12])	pIC50 (CYP1A2; read-out: 1A2 IC50, Protocol 1)	HLM [2, 13] [mL/min/kg]	RLM [3, 14] [mL/min/kg]	% Remaining @ 2 h (Human plasma stability; [15]) [%]	pIC50 (CYP2C9; read-out: 2C9 IC50, Protocol 1)	pIC50 (CYP2D6; read-out: 2D6 IC50, Protocol 1)	pIC50 (CYP2C19 [4]; [16])	further results
O=C(OCC12CCN(CC1)CC2)c1c[nH]c2cc(O)ccc12 [Compound 14, quinuclidin-4-ylmethyl 6-hydroxy-1H-indole-3-carboxylate]	7.21	7.27	< 5.00	< 5.00	< 5.00	< 5.00	–	–	–	–	–	–	–	–	–	–	–	–	HLM ([2]; human, microsomes, pH 7.4): <13.608 mL/min/kg; RLM ([3]; rat, microsomes, pH 7.4): 25.92 mL/min/kg; % Remaining @ 2 h (Human plasma stability; human, plasma, 2 h, 1 μM, pH 7.4): 26%; half-life at 1 μM (Human plasma stability; human, plasma, pH 7.4): 65.6 min
Cl.O=C(OCC12CCN(CC1)CC2)c1c[nH]c2cc(OC(F)(F)F)ccc12 [Compound 29, Quinuclidin-4-ylmethyl 6-(trifluoromethoxy)-1H-indole-3-carboxylate hydrochloride]	5.43	5.49	< 5.00	< 5.00	< 5.00	< 5.00	<13.608	25.92	< 5.00	–	–	–	–	–	–	–	–	–	–
Cl.O=C(OCC12CCN(CC1)CC2)c1c[nH]c2cc3c(cc12)OCCO3 [Compound 30, Quinuclidin-4-ylmethyl 2,3-dihydro-6H-[1,4]dioxino[2,3-f]indole-8-carboxylate hydrochloride]	7.03	7.09	< 5.00	< 5.00	< 5.00	< 5.00	<13.608	55.98	< 5.00	–	–	–	–	–	–	–	–	–	% Remaining @ 2 h (Human plasma stability; Protocol No. 1, human plasma, 1 μM, 37° C.): 10%; half-life at 1 μM (Human plasma stability; [10]): 34.7 min
Cl.O=C(OCC12CCN(CC1)CC2)c1c[nH]c2cc(OC(F)F)ccc12 [Compound 31, Quinuclidin-4-ylmethyl 6-(difluoromethoxy)-1H-indole-3-carboxylate hydrochloride]	6.10	6.16	< 5.00	< 5.00	< 5.00	< 5.00	<13.608	25.92	< 5.00	–	–	–	–	–	–	–	–	–	–
COc1cc2[nH]cc(C(=O)OCC34CCN(CC3)CC4)c2cc1F.Cl [Compound 32, Quinuclidin-4-ylmethyl 5-fluoro-6-methoxy-1H-indole-3-carboxylate hydrochloride]	6.51	6.57	< 5.00	< 5.00	< 5.00	< 5.00	<13.608	85.5	< 5.00	–	–	–	–	–	–	–	–	–	half-life at 1 μM (Human plasma stability; [10]): > 120 min
COc1cc(F)c2c(C(=O)OCC34CCN(CC3)CC4)c[nH]c2c1.Cl [Compound 33, Quinuclidin-4-ylmethyl 4-fluoro-6-methoxy-1H-indole-3-carboxylate hydrochloride]	7.30	7.36	< 5.00	< 5.00	< 5.00	< 5.00	<13.608	47.7	< 5.00	–	–	–	–	–	–	–	–	–	half-life at 1 μM (Human plasma stability; [10]): 17.6 min
COc1ccc2[nH]cc(C(=O)OCC34CCN(CC3)CC4)c2c1Cl [Compound 39, quinuclidin-4-ylmethyl 4-chloro-5-methoxy-1H-indole-3-carboxylate]	7.62	7.69	–	–	–	–	–	–	–	< 5.00	< 5.00	< 5.00	–	–	–	–	–	–	HLM ([2]; human, microsomes): 9.18 mL/min/kg; RLM ([3]; rat, microsomes): 262.35 mL/min/kg; % Remaining @ 2 h (Human plasma stability; human, plasma, 2 h, 5 μM): 14.05%; pIC50 (CYP2C19 [5]): < 5.00
COc1ccc2[nH]cc(C(=O)OCC34CCN(CC3)CC4)c2c1OC [Compound 40, quinuclidin-4-ylmethyl 4,5-dimethoxy-1H-indole-3-carboxylate]	7.16	7.22	–	–	–	–	–	–	–	< 5.00	< 5.00	< 5.00	–	–	–	–	–	–	HLM ([2]; human, microsomes): 7.67 mL/min/kg; RLM ([3]; rat, microsomes): 49.42 mL/min/kg; T1/2 (Human plasma stability; human, plasma): ∞; % Remaining @ 2 h (Human plasma stability; human, plasma, 2 h, 5 μM): 106.8%; pIC50 (CYP2C19 [5]): < 5.00
Cc1ccc2c(C(=O)OCC34CCN(CC3)CC4)c[nH]c2c1.Cl [Compound 45, Quinuclidin-4-ylmethyl 6-methyl-1H-indole-3-carboxylate hydrochloride]	7.13	7.20	–	–	–	–	–	–	–	< 5.00	< 5.00	< 5.00	2.976	170.981	47.32	< 5.00	< 5.00	< 5.00	–
Cl.O=C(OCC12CCN(CC1)CC2)c1c[nH]c2cc(F)c(F)cc12 [Compound 51, Quinuclidin-4-ylmethyl 5,6-difluoro-1H-indole-3-carboxylate hydrochloride]	6.18	6.25	–	–	–	–	–	–	–	< 5.00	< 5.00	< 5.00	1.004	716.882	79.3649	< 5.00	< 5.00	< 5.00	–
O=C(OCC12CCN(CC1)CC2)c1c[nH]c2cc(O)cc(Br)c12 [Compound 53, quinuclidin-4-ylmethyl 4-bromo-6-hydroxy-1H-indole-3-carboxylate]	7.27	7.34	–	–	–	–	–	–	–	< 5.00	< 5.00	< 5.00	8.304	29.9085	95.5	< 5.00	< 5.00	< 5.00	–
COc1cc2c(C(=O)OCC34CCN(CC3)CC4)c[nH]c2cc1F [Compound 57, quinuclidin-4-ylmethyl 6-fluoro-5-methoxy-1H-indole-3-carboxylate]	6.59	6.66	–	–	–	–	–	–	–	< 5.00	< 5.00	< 5.00	0	153.227	76.33	< 5.00	< 5.00	< 5.00	–
